Experimental findings from article PMC10302047, “Structure–Activity Relationship Studies of Indolglyoxyl-Polyamine Conjugates as Antimicrobials and Antibiotic Potentiators” (Pharmaceuticals, 2023) are described below.

The structures appear in SMILES notation. In brackets after ≈: the same amount, converted by molar mass. Like-named read-outs stand apart in the source and are kept apart here.

For series [1], the system named is P. aeruginosa ATCC 27853. In words: Antibiotic potentiation (MIC of antibiotics in the presence of synergizing compounds), P. aeruginosa. It counts as cell-based, Pseudomonas aeruginosa. The following applies: concentration required to restore doxycycline activity at 2 µg/mL (4.5 µM) against P. aeruginosa ATCC 27853.
The subject of series [2] is E. coli ATCC 25922. Description: Antimicrobial susceptibility (MIC), E. coli. It counts as cell-based. The following applies: Escherichia coli, ATCC25922, mean (n = 3). As to the method:
(§1) The susceptibility of bacterial strains S. aureus (ATCC 25923), E. coli (ATCC 25922) and P. aeruginosa (ATCC 27853) to antibiotics and compounds was determined according to previously reported protocols. Additional antimicrobial evaluation against MRSA (ATCC 43300) and C. albicans (ATCC 90028) was undertaken at the Community for Open Antimicrobial Drug Discovery at The University of Queensland (Australia) according to their standard protocols as reported previously.

The nature of series [3]: Cytotoxicity assay HEK293. The following applies: human, HEK293 cells, mean (n = 2), read-out: Cyto. IC50 (concentration of compound at 50% cytotoxicity). It counts as cell-based, human. As to the method:
Cytotoxicity assays were conducted according to previously reported protocols.

The test system of series [4] is P. aeruginosa ATCC 27853. In words: Antimicrobial susceptibility (MIC), P. aeruginosa. It counts as cell-based. Conditions: Pseudomonas aeruginosa. As to the method: as §1
Series [5] has as its system C. albicans ATCC 90028. Description: Antifungal susceptibility (MIC), C. albicans. It counts as cell-based. Conditions: Candida albicans, ATCC90028, mean (n = 2). As for the experimental part: as §1
Series [6] relates to human red blood cells. Description: Hemolytic assay. It counts as cell-based. The following applies: mean (n = 2). As to the method:
Hemolysis assays were conducted according to previously reported protocols.

In series [7] the test system is S. aureus ATCC 25923. Description: Antimicrobial susceptibility (MIC), S. aureus. The following applies: for MIC: Staphylococcus aureus, ATCC25923, S. aureus ATCC 25923, mean (n = 3). The series is classed as cell-based, Staphylococcus aureus. As for the experimental part: as §1
Series [8] deals with MRSA ATCC 43300. Description: Antimicrobial susceptibility (MIC), MRSA. The series is classed as cell-based. The following applies: Staphylococcus aureus, read-out: MIC MRSA. As to the method: as §1
The mark [9] stands for this setting: ATCC27853, mean (n = 3), read-out: MIC P. a.

A word on the MIC: it is the lowest concentration found to suppress growth. For the molecule `COc1cccc2c(C(=O)C(=O)NCCCNCCCCCCNCCCNC(=O)C(=O)c3c[nH]c4c(OC)cccc34)c[nH]c12.O=C(O)C(F)(F)F.O=C(O)C(F)(F)F` [Compound 22a, N^1,N^6-Bis(3-(2-(7-methoxy-1H-indol-3-yl)-2-oxoacetamido)propyl)hexane-1,6-diaminium 2,2,2-trifluoroacetate], the “Conc (µM) for Potentiation of doxycycline” value (from here on “Conc (µM) for Potentiation”) in series [1] came to 100 µM. Moreover, the minimal inhibitory concentration (MIC) in series [2] is 400 µM; in series [4] (setting [9]), 800 µM; in series [5], over 37 µM; in series [7], 50 µM; in series [8] (MRSA ATCC 43300, mean (n = 2)) it was over 37 µM. Moreover, the IC50 in series [3] was over 37 µM. Moreover, in series [6], the “Hem. HC10 (concentration of compound at 10% hemolytic activity)” value is recorded as over 37 µM.

For the molecule `O=C(NCCCNCCCCCCNCCCNC(=O)C(=O)c1c[nH]c2ccccc12)C(=O)c1c[nH]c2ccccc12.O=C(O)C(F)(F)F.O=C(O)C(F)(F)F` [Compound 17a, N^1,N^6-Bis(3-(2-(1H-indol-3-yl)-2-oxoacetamido)propyl)hexane-1,6-diaminium 2,2,2-trifluoroacetate], the “Conc (µM) for Potentiation” value in series [1] was 12.5 µM. The MIC in series [2] is 50 µM; in series [4] (setting [9]), over 200 µM; in series [5], over 40 µM; in series [7], 12.5 µM; in series [8] (MRSA ATCC 43300, mean (n = 2)), over 40 µM.

Regarding `CC/C(=C(\c1ccccc1)c1ccc(OCCN(C)C)cc1)c1ccccc1` [tamoxifen, reference compound], the IC50 in series [3] turned out to be 24 µM.

Regarding `Cc1ccc2[nH]cc(C(=O)C(=O)NCCCNCCCCCCCCNCCCNC(=O)C(=O)c3c[nH]c4ccc(C)cc34)c2c1.O=C(O)C(F)(F)F.O=C(O)C(F)(F)F` [Compound 20c, N^1,N^8-Bis(3-(2-(5-methyl-1H-indol-3-yl)-2-oxoacetamido)propyl)octane-1,8-diaminium 2,2,2-trifluoroacetate], the “Conc (µM) for Potentiation” value in series [1] worked out at 400 µM. Besides, the MIC in series [2] is 12.5 µM; in series [4] (setting [9]), 800 µM; in series [5], over 37 µM; in series [7] it was 3.12 µM; in series [8] (MRSA ATCC 43300, mean (n = 2)), 4.7 µM. Also, the IC50 in series [3] is over 37 µM.

Consider `COc1cccc2c(C(=O)C(=O)NCCCNCCCCCCCCCCCCNCCCNC(=O)C(=O)c3c[nH]c4c(OC)cccc34)c[nH]c12` [Compound 22e], for which the “Conc (µM) for Potentiation” value in series [1] came out at 400 µM. In addition, the MIC in series [2] was 12.5 µM (≈ 8.96 µg/mL); in series [4] (setting [9]) it was 800 µM; in series [5], at most 0.26 µM; in series [7] it was 3.12 µM (≈ 2.24 µg/mL); in series [8] (MRSA ATCC 43300, mean (n = 2)) it was at most 0.26 µM. For the same molecule, in series [6], the “Hem. HC10 (concentration of compound at 10% hemolytic activity)” value is listed as 0.93 µM. Further, in series [7] (S. aureus ATCC 25923 and MRSA, summary range in text), the “S. aureus and MRSA MIC (range over both strains)” value was 0.26 to 3.125 µM.

Regarding `CN(C)c1ccc(O)c2c1C[C@H]1C[C@H]3[C@H](N(C)C)C(O)=C(C(N)=O)C(=O)[C@@]3(O)C(O)=C1C2=O` [minocycline, reference compound], the MIC in series [4] (setting [9]) worked out at 70 µM.

With `O=C(N[C@H](CO)[C@H](O)c1ccc([N+](=O)[O-])cc1)C(Cl)Cl` [chloramphenicol, reference compound], the MIC in series [2] was over 200 µM; in series [4] (setting [9]), over 200 µM; in series [7], 1.5 to 3 µM (≈ 0.485 to 0.969 µg/mL).

Regarding `CCn1cc(C(=O)O)c(=O)c2ccc(C)nc21` [nalidixic acid, reference compound], the minimal inhibitory concentration (MIC) in series [2] and in series [4] (setting [9]) was over 200 µM each time.

For the molecule `[H]/N=C(/N)N[C@H]1[C@H](O)[C@@H](O)[C@H](O[C@@H]2O[C@@H](C)[C@](O)(C=O)[C@H]2O[C@@H]2O[C@@H](CO)[C@H](O)[C@@H](O)[C@@H]2NC)[C@@H](N/C(N)=N\[H])[C@@H]1O` [streptomycin, reference compound], the MIC in series [2] was determined as 21.5 µM (≈ 12.5 µg/mL); in series [4] (setting [9]) it was 21.5 µM; in series [7], 21.5 µM (≈ 12.5 µg/mL).

`Cc1ccc2[nH]cc(C(=O)C(=O)NCCCNCCCCCCCNCCCNC(=O)C(=O)c3c[nH]c4ccc(C)cc34)c2c1.O=C(O)C(F)(F)F.O=C(O)C(F)(F)F` [Compound 20b, N^1,N^7-Bis(3-(2-(5-methyl-1H-indol-3-yl)-2-oxoacetamido)propyl)heptane-1,7-diaminium 2,2,2-trifluoroacetate]: the “Conc (µM) for Potentiation” value in series [1] turned out to be 12.5 µM. Further, the minimum inhibitory concentration (MIC) in series [2] is 50 µM; in series [4] (setting [9]), 200 µM; in series [5], over 38 µM; in series [7], 6.25 µM; in series [8] (MRSA ATCC 43300, mean (n = 2)), at most 0.3 µM. Further, the “Hem. HC10 (concentration of compound at 10% hemolytic activity)” value in series [6] is listed as over 38 µM.

With `C[C@H]1c2cccc(O)c2C(=O)C2=C(O)[C@]3(O)C(=O)C(C(N)=O)=C(O)[C@@H](N(C)C)[C@@H]3[C@@H](O)[C@@H]21` [doxycycline, reference compound], the MIC in series [2] stood at 25 µM (≈ 11.1 µg/mL); in series [4] (setting [9]) it was 50 µM; in series [4] (ATCC27853, read-out: observed MIC of doxycycline) it was 20 µg/mL.

Take `CN[C@H](CC(C)C)C(=O)N[C@H]1C(=O)N[C@@H](CC(N)=O)C(=O)N[C@H]2C(=O)N[C@H]3C(=O)N[C@H](C(=O)N[C@H](C(=O)O)c4cc(O)cc(O)c4-c4cc3ccc4O)[C@H](O)c3ccc(c(Cl)c3)Oc3cc2cc(c3O[C@@H]2O[C@H](CO)[C@@H](O)[C@H](O)[C@H]2O[C@H]2C[C@](C)(N)[C@H](O)[C@H](C)O2)Oc2ccc(cc2Cl)[C@H]1O` [vancomycin, reference compound]: the MIC in series [8] worked out at 0.7 µM (≈ 1.01 µg/mL).

As to `Cc1ccc2[nH]cc(C(=O)C(=O)NCCCNCCCCCCCCCCCCNCCCNC(=O)C(=O)c3c[nH]c4ccc(C)cc34)c2c1.O=C(O)C(F)(F)F.O=C(O)C(F)(F)F` [Compound 20e, N^1,N^12-Bis(3-(2-(5-methyl-1H-indol-3-yl)-2-oxoacetamido)propyl)dodecane-1,12-diaminium 2,2,2-trifluoroacetate], the “Conc (µM) for Potentiation” value in series [1] turned out to be 400 µM. Besides, the MIC in series [2] came to 12.5 µM; in series [4] (setting [9]), 800 µM; in series [5], 2.2 µM; in series [7], 3.12 µM. In series [6], the “Hem. HC10 (concentration of compound at 10% hemolytic activity)” value came to 2.0 µM.

As to `OC(Cn1cncn1)(Cn1cncn1)c1ccc(F)cc1F` [fluconazole, reference compound], the MIC in series [5] came out at 0.4 µM (≈ 0.123 µg/mL).

With `CC[C@H]1OC(=O)[C@H](C)[C@@H](O[C@H]2C[C@@](C)(OC)[C@@H](O)[C@H](C)O2)[C@H](C)[C@@H](O[C@@H]2O[C@H](C)C[C@H](N(C)C)[C@H]2O)[C@](C)(O)C[C@@H](C)C(=O)[C@H](C)[C@@H](O)[C@]1(C)O` [erythromycin, reference compound], the MIC in series [2] and in series [4] (setting [9]) was over 200 µM throughout.

Regarding `Cc1cccc2c(C(=O)C(=O)NCCCNCCCCCCCCCCNCCCNC(=O)C(=O)c3c[nH]c4c(C)cccc34)c[nH]c12.O=C(O)C(F)(F)F.O=C(O)C(F)(F)F` [Compound 23d, N^1,N^10-Bis(3-(2-(7-methyl-1H-indol-3-yl)-2-oxoacetamido)propyl)decane-1,10-diaminium 2,2,2-trifluoroacetate], in series [1], the “Conc (µM) for Potentiation” value turned out to be 230 µM. The MIC was 14.1 µM in series [2]; over 230 µM in series [4] (setting [9]); 18 µM in series [5]; 7.1 µM in series [7]; at most 0.28 µM in series [8] (MRSA ATCC 43300, mean (n = 2)). Besides, the IC50 in series [3] was over 36 µM.

For `COc1cccc2c(C(=O)C(=O)NCCCNCCCCCCCCNCCCNC(=O)C(=O)c3c[nH]c4c(OC)cccc34)c[nH]c12` [Compound 22c], the “Conc (µM) for Potentiation” value in series [1] stood at 200 µM. Besides, the MIC in series [2] is 200 µM (≈ 132 µg/mL); in series [4] (setting [9]), 800 µM; in series [5], over 36 µM; in series [7], 25 µM (≈ 16.5 µg/mL); in series [8] (MRSA ATCC 43300, mean (n = 2)), 4.5 µM (≈ 2.97 µg/mL). Further, the “Hem. HC10 (concentration of compound at 10% hemolytic activity)” value in series [6] is over 36 µM.

`Cc1ccc2[nH]cc(C(=O)C(=O)NCCCNCCCCCCNCCCNC(=O)C(=O)c3c[nH]c4ccc(C)cc34)c2c1.O=C(O)C(F)(F)F.O=C(O)C(F)(F)F` [Compound 20a, N^1,N^6-Bis(3-(2-(5-methyl-1H-indol-3-yl)-2-oxoacetamido)propyl)hexane-1,6-diaminium 2,2,2-trifluoroacetate]: in series [1], the “Conc (µM) for Potentiation” value is 12.5 µM. In addition, the MIC was 50 µM in series [2]; 200 µM in series [4] (setting [9]); over 39 µM in series [5]; 12.5 µM in series [7]; at most 0.3 µM in series [8] (MRSA ATCC 43300, mean (n = 2)). In addition, the IC50 in series [3] was over 39 µM.

Turning to `Cc1ccc2[nH]cc(C(=O)C(=O)NCCCNCCCCCCCCCCNCCCNC(=O)C(=O)c3c[nH]c4ccc(C)cc34)c2c1.O=C(O)C(F)(F)F.O=C(O)C(F)(F)F` [Compound 20d, N^1,N^10-Bis(3-(2-(5-methyl-1H-indol-3-yl)-2-oxoacetamido)propyl)decane-1,10-diaminium 2,2,2-trifluoroacetate], the “Conc (µM) for Potentiation” value in series [1] is listed as 400 µM. Moreover, the MIC in series [2] was 12.5 µM; in series [4] (setting [9]), 800 µM; in series [5] it was 9 µM; in series [7], 3.12 µM; in series [8] (MRSA ATCC 43300, mean (n = 2)), at most 0.28 µM. In addition, the IC50 in series [3] was over 36 µM.
